What was measured:
B1R of the rat = target: T1, B1R of the rat (Rattus norvegicus, UniProt P97583); test: FLIPR Ca2+ functional assay, B1R antagonism, rat B1R in CHO K1 cells; format: cell-based; conditions: test substance 10 μM; rB1R CHO K1 cells; agonist Des-Arg9 bradykinin at EC80; % of maximum achievable inhibition
T1 construct: expressed in transfected cells; host or cells: CHO K1 cells (Chinese hamster ovary), stably transfected
T1 sequence (P97583 1-337): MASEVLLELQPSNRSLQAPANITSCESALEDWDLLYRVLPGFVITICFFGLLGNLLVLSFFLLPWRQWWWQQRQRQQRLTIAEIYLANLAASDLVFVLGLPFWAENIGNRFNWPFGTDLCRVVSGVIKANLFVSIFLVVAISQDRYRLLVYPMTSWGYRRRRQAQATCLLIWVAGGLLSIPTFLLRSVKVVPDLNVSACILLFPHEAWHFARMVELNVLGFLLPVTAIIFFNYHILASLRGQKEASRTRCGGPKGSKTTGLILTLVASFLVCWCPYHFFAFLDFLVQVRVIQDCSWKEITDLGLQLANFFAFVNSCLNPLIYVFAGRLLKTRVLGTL
Method in brief: (§1)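 Stably transfected CHO K1 cells loaded with Fluo-4; Ca2+ fluorescence read on FLIPR (ex 488/em 540 nm). Compound preincubated 10-20 min, then agonist at EC80: Lys-Des-Arg9 bradykinin (human) or Des-Arg9 bradykinin (rat). % inhibition vs maximal inhibition; IC50 from concentration series, n=2-3, N>=2.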

human B1R = target: T2, human B1R (Homo sapiens, UniProt P46663); test: FLIPR Ca2+ functional assay, B1R antagonism, human B1R in CHO K1 cells; format: cell-based; conditions: test substance 10 μM; hB1R CHO K1 cells; agonist Lys-Des-Arg9 bradykinin at EC80; % of maximum achievable inhibition
T2 construct: expressed in transfected cells; host or cells: CHO K1 cells (Chinese hamster ovary), stably transfected
T2 sequence (P46663 1-353): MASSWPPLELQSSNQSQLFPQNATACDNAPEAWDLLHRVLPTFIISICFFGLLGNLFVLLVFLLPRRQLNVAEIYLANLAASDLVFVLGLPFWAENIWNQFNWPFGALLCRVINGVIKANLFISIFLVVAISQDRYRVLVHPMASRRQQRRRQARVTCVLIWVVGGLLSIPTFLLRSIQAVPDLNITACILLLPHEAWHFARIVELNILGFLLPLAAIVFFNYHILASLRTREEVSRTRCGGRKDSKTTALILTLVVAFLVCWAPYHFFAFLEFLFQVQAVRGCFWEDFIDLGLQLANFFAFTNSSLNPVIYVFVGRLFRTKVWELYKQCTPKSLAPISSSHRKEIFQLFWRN
Method in brief: as §1

inhibition at 10 µM (B1R of the rat) [%]	inhibition at 10 µM (human B1R) [%]	Compound
102	100	COc1ccc2cc(S(=O)(=O)N3CCn4cccc4C3CC(=O)NC3CCc4cc(CN5CCOCC5)ccc4C3)ccc2c1 (centres unmarked) [Example 118, 2-[2-[(6-Methoxy-naphthalen-2-yl)sulfonyl]-1,2,3,4-tetrahydro-pyrrolo[1,2-a]pyrazin-1-yl]-N-[6-(morpholin-4-yl-methyl)-1,2,3,4-tetrahydro-naphthalen-2-yl]-acetamide]
101	100	COc1ccc2cc(S(=O)(=O)N3CCn4cccc4C3CC(=O)NC3CCCc4cc(CN(C)C)ccc43)ccc2c1 (centres unmarked) [Example 106, N-[6-(Dimethylaminomethyl)-1,2,3,4-tetrahydro-naphthalen-1-yl]-2-[2-[(6-methoxy-naphthalen-2-yl)sulfonyl]-1,2,3,4-tetrahydro-pyrrolo[1,2-a]pyrazin-1-yl]-acetamide]
103	96	Cc1ccc(S(=O)(=O)N2CCn3cccc3C2CC(=O)NC2CCc3cc(CN4CCCc5ccccc54)ccc3C2)cc1Cl (centres unmarked) [Example 52, 2-[2-[(3-Chloro-4-methyl-phenyl)sulfonyl]-1,2,3,4-tetrahydro-pyrrolo[1,2-a]pyrazin-1-yl]-N-[6-(1,2,3,4-tetrahydro-quinolin-1-yl-methyl)-1,2,3,4-tetrahydro-naphthalen-2-yl]-acetamide]
102	99.9	CN(C)Cc1ccc2c(c1)CCC(NC(=O)CC1c3cccn3CCN1S(=O)(=O)c1cccc(C(F)(F)F)c1)C2 (centres unmarked) [Example 92, N-[6-(Dimethylaminomethyl)-1,2,3,4-tetrahydro-naphthalen-2-yl]-2-[2-[[3-(trifluoromethyl)phenyl]sulfonyl]-1,2,3,4-tetrahydro-pyrrolo[1,2-a]pyrazin-1-yl]-acetamide]
102	98.9	O=C(CC1c2cccn2CCN1S(=O)(=O)c1ccc(Cl)c(Cl)c1)NC1CCc2cc(CN3CCCCC3)ccc2C1 (centres unmarked) [Example 26, 2-(2-(3,4-dichlorophenylsulfonyl)-1,2,3,4-tetrahydropyrrolo[1,2-a]pyrazin-1-yl)-N-(6-(piperidin-1-ylmethyl)-1,2,3,4-tetrahydronaphthalen-2-yl)acetamide]
102	99.8	CN(Cc1ccc2c(c1)CCC(NC(=O)CC1c3cccn3CCN1S(=O)(=O)c1cccc(C(F)(F)F)c1)C2)C(C)(C)C (centres unmarked) [Example 116, N-[6-[(tert-Butyl-methyl-amino)-methyl]-1,2,3,4-tetrahydro-naphthalen-2-yl]-2-[2-[[3-(trifluoromethyl)phenyl]sulfonyl]-1,2,3,4-tetrahydro-pyrrolo[1,2-a]pyrazin-1-yl]-acetamide]
76.2	99.8	CN1CCN(Cc2ccc3c(c2)CCCC3NC(=O)CC2c3cccn3CCN2S(=O)(=O)c2cccc(C(F)(F)F)c2)CC1 (centres unmarked) [Example 59, N-[6-[(4-Methyl-piperazin-1-yl)-methyl]-1,2,3,4-tetrahydro-naphthalen-1-yl]-2-[2-[[3-(trifluoromethyl)phenyl]sulfonyl]-1,2,3,4-tetrahydro-pyrrolo[1,2-a]pyrazin-1-yl]-acetamide]
100	94.8	COc1cc(C)c(S(=O)(=O)N2CCn3cccc3C2CC(=O)N2CCN(C3CCN(C)CC3)CC2)c(C)c1 (centres unmarked) [Example 1, 2-(2-(4-Methoxy-2,6-dimethylphenylsulfonyl)-1,2,3,4-tetrahydro-pyrrolo[1,2-a]pyrazin-1-yl)-1-(4-(1-methylpiperidin-4-yl)piperazin-1-yl)ethanone]
106	99.9	O=C(CC1c2cccn2CCN1S(=O)(=O)c1cccc(Cl)c1)NC1CCc2cc(CN3CCCCC3)ccc2C1 (centres unmarked) [Example 47, 2-(2-(3-chlorophenylsulfonyl)-1,2,3,4-tetrahydropyrrolo[1,2-a]-pyrazin-1-yl)-N-(6-(piperidin-1-ylmethyl)-1,2,3,4-tetrahydronaphthalen-2-yl)-acetamide]
99.5	99.9	CCC(C)NCc1ccc2c(c1)CCC(NC(=O)CC1c3cccn3CCN1S(=O)(=O)c1ccc3cc(OC)ccc3c1)C2 (centres unmarked) [Example 121, 2-[2-[(6-Methoxy-naphthalen-2-yl)sulfonyl]-1,2,3,4-tetrahydro-pyrrolo[1,2-a]pyrazin-1-yl]-N-[6-[(1-methyl-propylamino)-methyl]-1,2,3,4-tetrahydro-naphthalen-2-yl]-acetamide]
103	99.5	COc1ccc2cc(S(=O)(=O)N3CCn4cccc4C3CC(=O)N[C@@H]3CCCc4cc(CN5CCCCC5)ccc43)ccc2c1 (stereo partly drawn) [Example 9, 2-(2-(6-Methoxynaphthalen-2-ylsulfonyl)-1,2,3,4-tetrahydropyrrolo[1,2-a]pyrazin-1-yl)-N—((R)-6-(piperidin-1-ylmethyl)-1,2,3,4-tetrahydronaphthalen-1-yl)acetamide]
101	99.3	O=C(CC1c2cccn2CCN1S(=O)(=O)c1cccc(C(F)(F)F)c1)NC1CCc2cc(CNCc3ccccc3)ccc2C1 (centres unmarked) [Example 83, N-[6-[(Benzylamino)-methyl]-1,2,3,4-tetrahydro-naphthalen-2-yl]-2-[2-[[3-(trifluoromethyl)phenyl]sulfonyl]-1,2,3,4-tetrahydro-pyrrolo[1,2-a]pyrazin-1-yl]-acetamide]
102	99.8	CCC(C)NCc1ccc2c(c1)CCCC2NC(=O)CC1c2cccn2CCN1S(=O)(=O)c1ccc(C)c(Cl)c1 (centres unmarked) [Example 132, 2-[2-[(3-Chloro-4-methyl-phenyl)sulfonyl]-1,2,3,4-tetrahydro-pyrrolo[1,2-a]pyrazin-1-yl]-N-[6-[(1-methyl-propylamino)-methyl]-1,2,3,4-tetrahydro-naphthalen-1-yl]-acetamide]
104	98.1	COc1cc(C)c(S(=O)(=O)N2CCn3cccc3C2COCC(=O)N2CCC(Oc3ccncc3)C2)c(C)c1 (centres unmarked) [Example 38, 2-[[2-[(4-Methoxy-2,6-dimethyl-phenyl)sulfonyl]-1,2,3,4-tetrahydro-pyrrolo[1,2-a]pyrazin-1-yl]-methoxy]-1-(3-pyridin-4-yloxy-pyrrolidin-1-yl)-ethanone]
101	100	Cc1ccc(S(=O)(=O)N2CCn3cccc3C2CC(=O)NC2CCc3cc(CN4CCCC4)ccc3C2)cc1 (centres unmarked) [Example 123, 2-[2-(p-Tolylsulfonyl)-1,2,3,4-tetrahydro-pyrrolo[1,2-a]pyrazin-1-yl]-N-[6-(pyrrolidin-1-yl-methyl)-1,2,3,4-tetrahydro-naphthalen-2-yl]-acetamide]
102	99.8	O=C(COCC1c2cccn2CCN1S(=O)(=O)c1ccccc1C(F)(F)F)N1CCC(Oc2ccncc2)CC1 (centres unmarked) [Example 5, 1-(4-(Pyridin-4-yloxy)piperidin-1-yl)-2-((2-(2-(trifluoromethyl)phenylsulfonyl)-1,2,3,4-tetrahydropyrrolo[1,2-a]pyrazin-1-yl)methoxy)ethanone]
104	100	COc1ccc2cc(S(=O)(=O)N3CCn4cccc4C3CC(=O)NC3CCc4cc(CNC(C)(C)C)ccc4C3)ccc2c1 (centres unmarked) [Example 31, N-(6-((tert-Butylamino)methyl)-1,2,3,4-tetrahydronaphthalen-2-yl)-2-(2-(6-methoxynaphthalen-2-ylsulfonyl)-1,2,3,4-tetrahydropyrrolo[1,2-a]-pyrazin-1-yl)acetamide]

Compound	inhibition at 10 µM (B1R of the rat) [%]	inhibition at 10 µM (human B1R) [%]
COc1ccc2cc(S(=O)(=O)N3CCn4cccc4C3CC(=O)NC3CCc4cc(CN5C6CCCC5CC6)ccc4C3)ccc2c1 (centres unmarked) [Example 103, N-[6-(8-Azabicyclo[3.2.1]octan-8-yl-methyl)-1,2,3,4-tetrahydro-naphthalen-2-yl]-2-[2-[(6-methoxy-naphthalen-2-yl)sulfonyl]-1,2,3,4-tetrahydro-pyrrolo[1,2-a]pyrazin-1-yl]-acetamide]	102	100
O=C(CC1c2cccn2CCN1S(=O)(=O)c1cccc(C(F)(F)F)c1)NC1CCCc2cc(CN3C4CCCC3CC4)ccc21 (centres unmarked) [Example 109, N-[6-(8-Azabicyclo[3.2.1]octan-8-yl-methyl)-1,2,3,4-tetrahydro-naphthalen-1-yl]-2-[2-[[3-(trifluoromethyl)phenyl]sulfonyl]-1,2,3,4-tetrahydro-pyrrolo[1,2-a]pyrazin-1-yl]-acetamide]	99.8	99.8

Source: patent US8158628B2, “Sulfonylated 1,2,3,4-tetrahydropyrrolo[1,2-a]pyrazine compounds and their use as pharmaceuticals” (Gruenenthal GmbH, priority 2009, dated 2012)
